Test results as given in patent US10934286B2, “Heterocyclic sulfones as ROR gamma modulators” (BRISTOL-MYERS SQUIBB COMPANY, priority 2016, dated 2021).
Where a name gives a salt, the structure may show the parent alone.

Molecular target: T1, RORγ receptor (Homo sapiens, UniProt P51449)
T1 construct: Jurkat pEx/Gal/hRORγ CLBD/HYG pG51uc/blast; expressed in transfected cells
T1 sequence (P51449 269-508 limits assumed): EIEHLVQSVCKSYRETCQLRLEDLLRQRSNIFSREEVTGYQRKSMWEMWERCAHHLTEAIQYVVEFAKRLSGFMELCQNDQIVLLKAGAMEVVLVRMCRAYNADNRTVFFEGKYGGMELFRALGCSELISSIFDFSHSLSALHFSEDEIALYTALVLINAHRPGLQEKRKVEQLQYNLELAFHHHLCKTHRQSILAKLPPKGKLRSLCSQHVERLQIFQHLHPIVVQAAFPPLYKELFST
Assay: General RORγ Gal4 reporter assay (inverse agonist activity, inhibition of luminescence)
Format: cell-based
Settings: Gal4-luciferase reporter in Jurkat cells stably over-expressing hRORγ LBD; overnight incubation; 40 μM to 0.67 nM
Description: General RORγ Gal4 Reporter Assay Inverse agonist activity of potential ligands to RORγ was measured by inhibition of luminescence in a Gal4-luciferase reporter assay in Jurkat cells.
The following day, cells were lysed with 10 μL of Steady-Glo Luciferase Assay System (Promega Cat. No. EZ550), and analyzed immediately. IC50 values were determined.

Row | SMILES | IC50 [nM]
1 | N#CCCN1C(=O)CC[C@H]1C(=O)N1CCC2(S(=O)(=O)c3ccc(F)cc3)c3cnc(OCc4ccccc4)cc3CCC12 (single isomer, unassigned) [Example 38] | 4250
2 | N#CCCN1C(=O)CC[C@H]1C(=O)N1CCC2(S(=O)(=O)c3ccc(F)cc3)c3ccc(OCc4c(Cl)cccc4Cl)nc3CCC12 (single isomer, unassigned) [Example 39] | 15
3 | N#CCCN1C(=O)CC[C@H]1C(=O)N1CCC2(S(=O)(=O)c3ccc(F)cc3)c3ccc(C(F)(C(F)(F)F)C(F)(F)F)nc3CCC12 (single isomer, unassigned) [Example 42] | 43
4 | CC(C)(O)CN1C(=O)[C@H](F)C[C@H]1C(=O)N1CCC2(S(=O)(=O)c3ccc(F)cc3)c3ccc(C(F)(C(F)(F)F)C(F)(F)F)nc3CCC12 (single isomer, unassigned) [Example 43] | 31
5 | CC(C)(O)CN1C(=O)[C@H](F)C[C@@H]1C(=O)N1CCC2(S(=O)(=O)c3ccc(F)cc3)c3ccc(C(F)(C(F)(F)F)C(F)(F)F)nc3CCC12 (single isomer, unassigned) [Example 44] | 168
6 | CC(C)(O)CN1C(=O)[C@@H]2C[C@@H]2[C@H]1C(=O)N1CCC2(S(=O)(=O)c3cccc(F)c3)c3cnc(C(F)(C(F)(F)F)C(F)(F)F)cc3CCC12 (single isomer, unassigned) [Example 51] | 22
7 | CC(C)(O)CN1C(=O)CCN1C(=O)N1CCC2(S(=O)(=O)c3ccc(F)cc3)c3ccc(C(F)(C(F)(F)F)C(F)(F)F)nc3CCC12 (single isomer, unassigned) [Example 54, 1-(9b-((4-fluorophenyl)sulfonyl)-7-(perfluoropropan-2-yl)-2,3,3a,4,5,9b-hexahydro-1H-pyrrolo[3,2-f]quinoline-3-carbonyl)-2-(2-hydroxy-2-methylpropyl)pyrazolidin-3-one] | 16
8 | O=C(N1CCC2(S(=O)(=O)c3ccccc3)c3ccc(OCc4c(Cl)cccc4Cl)nc3CCC12)C(F)(F)F (single isomer, unassigned) [Example 61] | 802
9 | O=C(N1CCC2(S(=O)(=O)c3ccccc3)c3ccc(OCc4c(Cl)cccc4Cl)nc3CCC12)C(F)(F)F (single isomer, unassigned) [Example 62] | 2440
10 | O=C(CC1(O)CCS(=O)(=O)C1)N1CCC2(S(=O)(=O)c3ccc(F)cc3)c3ccc(C(F)(C(F)(F)F)C(F)(F)F)nc3CCC12 (centres unmarked) [Example 10] | 33
11 | O=C(CC1(O)CCS(=O)(=O)C1)N1CCC2(S(=O)(=O)c3ccccc3)c3ccc(C(F)(C(F)(F)F)C(F)(F)F)nc3CCC12 (centres unmarked) [Example 11] | 21
12 | O=C(C1CCS(=O)(=O)CC1)N1CCC2(S(=O)(=O)c3ccccc3)c3ccc(C(F)(C(F)(F)F)C(F)(F)F)nc3CCC12 (centres unmarked) [Example 12] | 9
13 | N#CCCN1C(=O)CC[C@H]1C(=O)N1CCC2(S(=O)(=O)c3cccc(F)c3)c3cnc(C(F)(C(F)(F)F)C(F)(F)F)cc3CCC12 (some centres unmarked) [Example 14] | 4
14 | O=C(C1CCS(=O)(=O)CC1)N1CCC2(S(=O)(=O)c3cccc(F)c3)c3cnc(C(F)(C(F)(F)F)C(F)(F)F)cc3CCC12 (centres unmarked) [Example 15] | 8
15 | O=C(O)C12CCC(C(=O)N3CCC4(S(=O)(=O)c5ccccc5)c5ccc(C(F)(C(F)(F)F)C(F)(F)F)nc5CCC34)(CC1)CC2 (centres unmarked) [Example 16] | 6
16 | CC(C)(O)C(=O)N1CCC2(S(=O)(=O)c3ccccc3)c3ccc(C(F)(C(F)(F)F)C(F)(F)F)nc3CCC12 (centres unmarked) [Example 17] | 45
17 | CC(C)(O)CC(=O)N1CCC2(S(=O)(=O)c3ccccc3)c3ccc(C(F)(C(F)(F)F)C(F)(F)F)nc3CCC12 (centres unmarked) [Example 18] | 30
18 | N#CCCN1C(=O)CC[C@H]1C(=O)N1CCC2(S(=O)(=O)c3ccccc3)c3ccc(C(F)(C(F)(F)F)C(F)(F)F)nc3CCC12 (some centres unmarked) [Example 19] | 13
19 | N#CCCN1C(=O)CC[C@H]1C(=O)N1CCC2(S(=O)(=O)c3cccc(F)c3)c3ccc(C(F)(C(F)(F)F)C(F)(F)F)nc3CCC12 (some centres unmarked) [Example 21] | 11
20 | O=C1N[C@H](C(=O)N2CCC3(S(=O)(=O)c4cccc(F)c4)c4cnc(C(F)(C(F)(F)F)C(F)(F)F)cc4CCC23)[C@H]2C[C@@H]12 (some centres unmarked) [Example 35] | 3300
21 | CC(C)(CO)CN1C(=O)[C@H](F)C[C@H]1C(=O)N1CCC2(S(=O)(=O)c3cccc(F)c3)c3ccc(C(F)(C(F)(F)F)C(F)(F)F)nc3CCC12 (some centres unmarked) [Example 37] | 9
22 | O=C(O)[C@H]1CC[C@H](C(=O)N2CCC3(S(=O)(=O)c4ccc(F)cc4)c4ccc(OCc5c(Cl)cccc5Cl)nc4CCC23)CC1 (some centres unmarked) [Example 40] | 12
23 | CC(C)(O)CN1C(=O)[C@H](F)C[C@@H]1C(=O)N1CCC2(S(=O)(=O)c3cccc(F)c3)c3ccc(C(F)(C(F)(F)F)C(F)(F)F)nc3CCC12 (some centres unmarked) [Example 46] | 410

Second part, the molecule after the results:

Row | IC50 [nM] | SMILES
24 | 318 | C[C@H]1C[C@H](C(=O)O)CC[C@H]1C(=O)N1CCC2(S(=O)(=O)c3ccc(F)cc3)c3ncc(C(F)(C(F)(F)F)C(F)(F)F)cc3CCC12 (single isomer, unassigned) [Example 23, trifluoroacetate]
25 | 62 | O=C1N[C@H](C(=O)N2CCC3(S(=O)(=O)c4cccc(F)c4)c4ccc(C(F)(C(F)(F)F)C(F)(F)F)nc4CCC23)[C@H]2C[C@@H]12 (single isomer, unassigned) [Example 34, trifluoroacetate]
26 | 110 | O=C([C@@H]1C[C@@H](F)C(=O)N1CCO)N1CCC2(S(=O)(=O)c3ccc(F)cc3)c3ncc(C(F)(C(F)(F)F)C(F)(F)F)cc3CCC12 (single isomer, unassigned) [Example 36]
27 | 594 | C[C@H]1C[C@H](C(N)=O)CC[C@H]1C(=O)N1CCC2(S(=O)(=O)c3ccc(F)cc3)c3ncc(C(F)(C(F)(F)F)C(F)(F)F)cc3CCC12 (single isomer, unassigned) [Example 59]
28 | 69 | [2H]C([2H])([2H])N1C(=O)[C@H](F)C[C@H]1C(=O)N1CCC2(S(=O)(=O)c3ccc(F)cc3)c3ncc(C(F)(C(F)(F)F)C(F)(F)F)cc3CCC12 (some centres unmarked) [Example 2]
29 | 61 | O=C([C@@H]1CCC(=O)N1Cc1ccc(F)cc1)N1CCC2(S(=O)(=O)c3ccc(F)cc3)c3ncc(C(F)(C(F)(F)F)C(F)(F)F)cc3CCC12 (some centres unmarked) [Example 3]
30 | 161 | O=C(O)[C@H]1CC[C@H](C(=O)N2CCC3(S(=O)(=O)c4ccc(F)cc4)c4ncc(C(F)(C(F)(F)F)C(F)(F)F)cc4CCC23)CC1 (some centres unmarked) [Example 4]
31 | 78 | NC(=O)[C@H]1CC[C@H](C(=O)N2CCC3(S(=O)(=O)c4ccc(F)cc4)c4ncc(C(F)(C(F)(F)F)C(F)(F)F)cc4CCC23)CC1 (some centres unmarked) [Example 5]
32 | 54 | O=C(O)C12CCC(C(=O)N3CCC4(S(=O)(=O)c5ccc(F)cc5)c5ncc(C(F)(C(F)(F)F)C(F)(F)F)cc5CCC34)(CC1)CC2 (centres unmarked) [Example 6]
33 | 83 | NC(=O)C12CCC(C(=O)N3CCC4(S(=O)(=O)c5ccc(F)cc5)c5ncc(C(F)(C(F)(F)F)C(F)(F)F)cc5CCC34)(CC1)CC2 (centres unmarked) [Example 7]
34 | 91 | O=C(C1CCS(=O)(=O)CC1)N1CCC2(S(=O)(=O)c3ccc(F)cc3)c3ncc(C(F)(C(F)(F)F)C(F)(F)F)cc3CCC12 (centres unmarked) [Example 8]
35 | 87 | O=C(O)C1CC2(C1)CC(C(=O)N1CCC3(S(=O)(=O)c4ccc(F)cc4)c4ncc(C(F)(C(F)(F)F)C(F)(F)F)cc4CCC13)C2 (centres unmarked) [Example 9]
36 | 9 | O=C(C1CCS(=O)(=O)CC1)N1CCC2(S(=O)(=O)c3cccc(F)c3)c3ccc(C(F)(C(F)(F)F)C(F)(F)F)nc3CCC12 (centres unmarked) [Example 22]
37 | 15 | O=C(O)[C@H]1CC[C@H](C(=O)N2CCC3(S(=O)(=O)c4cccc(F)c4)c4ccc(C(F)(C(F)(F)F)C(F)(F)F)nc4CCC23)CC1 (some centres unmarked) [Example 24]
38 | 12 | C[C@H]1C[C@H](C(=O)O)CC[C@H]1C(=O)N1CCC2(S(=O)(=O)c3cccc(F)c3)c3ccc(C(F)(C(F)(F)F)C(F)(F)F)nc3CCC12 (some centres unmarked) [Example 25]
39 | 13 | O=C(O)[C@H]1CC[C@H](C(=O)N2CCC3(S(=O)(=O)c4cccc(F)c4)c4cnc(C(F)(C(F)(F)F)C(F)(F)F)cc4CCC23)CC1 (some centres unmarked) [Example 26]
40 | 21 | C[C@H]1C[C@H](C(=O)O)CC[C@H]1C(=O)N1CCC2(S(=O)(=O)c3cccc(F)c3)c3cnc(C(F)(C(F)(F)F)C(F)(F)F)cc3CCC12 (some centres unmarked) [Example 27]
41 | 8 | O=C(O)[C@H]1CC[C@H](C(=O)N2CCC3(S(=O)(=O)c4ccccc4)c4ccc(C(F)(C(F)(F)F)C(F)(F)F)nc4CCC23)CC1 (some centres unmarked) [Example 28]
42 | 13 | C[C@H]1C[C@H](C(=O)O)CC[C@H]1C(=O)N1CCC2(S(=O)(=O)c3ccccc3)c3ccc(C(F)(C(F)(F)F)C(F)(F)F)nc3CCC12 (some centres unmarked) [Example 29]
43 | 51 | C[C@H]1C[C@H](C(=O)O)CC[C@H]1C(=O)N1CCC2(S(=O)(=O)c3ccc(F)cc3)c3cnc(C(F)(C(F)(F)F)C(F)(F)F)cc3CCC12 (some centres unmarked) [Example 30]
44 | 5 | C[C@H]1C[C@H](C(=O)O)CC[C@H]1C(=O)N1CCC2(S(=O)(=O)c3ccc(F)cc3)c3ccc(C(F)(C(F)(F)F)C(F)(F)F)nc3CCC12 (some centres unmarked) [Example 32]
45 | 8 | O=C(O)[C@H]1CC[C@H](C(=O)N2CCC3(S(=O)(=O)c4ccc(F)cc4)c4ccc(C(F)(C(F)(F)F)C(F)(F)F)nc4CCC23)CC1 (some centres unmarked) [Example 33]
46 | 528 | CC(C)(O)CN1C(=O)[C@H](F)C[C@@H]1C(=O)N1CCC2(S(=O)(=O)c3ccc(F)cc3)c3cnc(C(F)(C(F)(F)F)C(F)(F)F)cc3CCC12 (some centres unmarked) [Example 45]
47 | 29 | CC(C)(O)CN1C(=O)[C@H](F)C[C@H]1C(=O)N1CCC2(S(=O)(=O)c3ccc(F)cc3)c3cnc(C(F)(C(F)(F)F)C(F)(F)F)cc3CCC12 (some centres unmarked) [Example 47]
